Laboratory results taken from US20250092030A1, “ENHANCERS OF PARTICULATE GUANYLYL CYCLASE RECEPTOR A” (Mayo Foundation for Medical Education and Research, priority 2023, published 2025).
“And” between values parts separate entries of the source, which are not always exact repeats. Equal entries are not always repeated. Where two headings read alike, the source gives them in different places.

Target: T1, particulate guanylyl cyclase receptor A (pGC-A) (Homo sapiens, UniProt P16066)
T1 construct: expressed in transfected cells; host or cells: HEK293
T1 sequence (P16066 33-1061): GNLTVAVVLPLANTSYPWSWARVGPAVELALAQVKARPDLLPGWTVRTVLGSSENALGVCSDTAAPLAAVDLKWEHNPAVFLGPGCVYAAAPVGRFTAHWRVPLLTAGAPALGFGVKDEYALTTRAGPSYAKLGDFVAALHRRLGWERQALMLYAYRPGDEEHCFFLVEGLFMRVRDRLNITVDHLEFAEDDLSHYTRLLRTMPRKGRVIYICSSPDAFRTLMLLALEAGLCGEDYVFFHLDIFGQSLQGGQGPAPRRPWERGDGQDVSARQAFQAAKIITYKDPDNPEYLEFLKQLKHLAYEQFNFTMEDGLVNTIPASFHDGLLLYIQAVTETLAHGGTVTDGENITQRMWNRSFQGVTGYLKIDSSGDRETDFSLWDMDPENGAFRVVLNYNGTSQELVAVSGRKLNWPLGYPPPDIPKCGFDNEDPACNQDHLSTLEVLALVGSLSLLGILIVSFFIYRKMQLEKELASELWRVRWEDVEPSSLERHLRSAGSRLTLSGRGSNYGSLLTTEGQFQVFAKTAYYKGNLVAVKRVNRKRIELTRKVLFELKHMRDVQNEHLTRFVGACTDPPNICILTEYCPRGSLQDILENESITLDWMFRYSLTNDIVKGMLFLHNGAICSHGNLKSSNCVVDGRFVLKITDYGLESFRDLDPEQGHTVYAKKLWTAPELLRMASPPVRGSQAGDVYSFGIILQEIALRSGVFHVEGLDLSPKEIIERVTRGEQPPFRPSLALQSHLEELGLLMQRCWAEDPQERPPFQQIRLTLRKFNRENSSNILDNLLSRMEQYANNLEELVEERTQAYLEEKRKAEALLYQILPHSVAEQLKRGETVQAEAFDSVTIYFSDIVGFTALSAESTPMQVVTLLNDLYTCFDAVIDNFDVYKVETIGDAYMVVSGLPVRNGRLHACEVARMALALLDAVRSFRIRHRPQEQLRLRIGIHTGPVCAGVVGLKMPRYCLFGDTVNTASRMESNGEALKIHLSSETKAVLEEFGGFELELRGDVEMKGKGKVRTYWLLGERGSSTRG
T1 sequence (P01160 124-151 partner limits assumed): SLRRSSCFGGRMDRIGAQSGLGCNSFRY
Test: cGMP production by HTRF in HEK293 cells overexpressing pGC-A, with ANP
Format: cell-based
Details: for Emax / Max efficacy: cGMP normalized to maximal amount produced by an EC80 concentration of ANP; for Emax: read-out: Max efficacy; for EC50: test compound plus EC20 concentration of ANP, cGMP by HTRF
Description: Assay: Generally, the assay monitors the production of cGMP, the second messenger generated by pGC-A, by Time-Resolved Florescence (HTRF) in HEK293 cells overexpressing the pGC-A. pGC-A suspension cells were stimulated in the presence of the test compound and an EC20 concentration of ANP. The quantity of cGMP was detected by competitive immunoassay using Eu^3+ cryptate-labeled anti-cGMP and d2-labeled cGMP and normalized to maximal amount produced by an EC80 concentration of ANP. Compound EC50 values were determined in the primary assay, in the presence or absence of ANP, to determine mode of action as positive modulators and tested for selectivity in the same assay platform but in HEK cells overexpressing the particulate guanylyl cyclase B receptor (pGC-B), of which CNP is the endogenous ligand.
Assay details: 20 nL of 10 μM test compound in DMSO was added to columns 5-48 of 1536 well white high base screening plates (Corning, New York, NY) cells using 550 ECHO acoustic dispenser (Labcyte, San Jose, CA). Alpha-atrial natriuretic peptide (ANP) (Phoenix Pharmaceutics) was prepared as stock aliquots at 5 μM in PBS with 0.1% BSA. An approximate […] concentration of ANP ([…]) in assay buffer (HBSS containing 5 mM HEPES and 0.05% BSA) was added to columns 3-48 at a volume of 1 μL. Assay buffer only was added to column 1 and assay buffer containing a saturating concentration of ANP (5 nM) was added to column 2. HEK293 cells overexpressing GC-A were resuspended in assay media (OptimMem media containing 2% Heat-inactivated Fetal bovine serum and L-glutamine) at a density of 6×10^5 cells/mL and 2 μL were plated in screening plates (1200 cells/well) in suspension using a Bioraptr 2. Plates were spun at 1000 rpm for 1 min and incubated for 30 min at room temperature. 1.5 μL d2-labeled cGMP followed by 1.5 μL Eu^3+ cryptate-labeled anti-cGMP cGMP detection kit (CiBio; #62GM2PEC) prepared according to manufacturer's protocol were added to all wells using a Bioraptr 2 and TR-FRET signal was detected on an EnVision detector (PerkinElmer). Wells treated with 0.3% DMSO only serve as blank controls (column 1); wells treated with 0.3% DMSO and 5 nM ANP (columns 2) serve as positive controls and wells treated with 0.3% DMSO and […] ANP (columns 3-4) serve as negative controls.

[1] = HEK293, HEK293 cells overexpressing pGC-A
[2] = HEK293 cells overexpressing pGC-A

Emax [1] [%] | EC50 [2] | Max efficacy [2] | Compound | Emax [2] [%]
 | 7400 nM and 2500 nM | 135% and 104% | O=C(Nc1nc2c(F)cc(F)cc2s1)C1CCCN(c2cccnc2)C1 (stereo not shown) [compound 080] | 
87 | 100 nM and 70 nM and 300 nM | 87, 87, 87% | O=C(Nc1nc2c(F)cc(F)cc2s1)C1CCCN(c2ccncc2)C1 (stereo not shown) [compound 081] | 
83 | 70 nM and 20 nM | 67% | CN1CC(N2CCCC(C(=O)Nc3nc4c(F)cc(F)cc4s3)C2)C1 (stereo not shown) [compound 084] | 
89 | 80 nM and 200 nM | 84% | O=C(Nc1nc2c(F)cc(F)cc2s1)C1CCCN(C2CNC2)C1 (stereo not shown) [compound 085] | 
85 | 160 nM and 70 nM | 69% | CN1CCC(N2CCCC(C(=O)Nc3nc4c(F)cc(F)cc4s3)C2)C1 (stereo not shown) [compound 090] | 
72 | 1300 nM |  | O=C(Nc1nc2c(F)cc(F)cc2s1)C1CCCN(C2CCNC2)C1 (stereo not shown) [compound 091] | 
89 | 50 nM |  | C=CCN1CCC(N2CCCC(C(=O)Nc3nc4c(F)cc(F)cc4s3)C2)C1 (stereo not shown) [compound 092] | 
86 | 90 nM |  | COCCN1CCC(N2CCCC(C(=O)Nc3nc4c(F)cc(F)cc4s3)C2)C1 (stereo not shown) [compound 093] | 
93 | 1000 nM |  | COC(=O)CN1CCC(N2CCCC(C(=O)Nc3nc4c(F)cc(F)cc4s3)C2)C1 (stereo not shown) [compound 094] | 
 | > 5000 nM |  | O=C(O)CN1CCC(N2CCCC(C(=O)Nc3nc4c(F)cc(F)cc4s3)C2)C1 (stereo not shown) [compound 095] | 
89 | 700 nM |  | CN1CCC(N2CCCC(C(=O)Nc3nc4c(F)cc(F)cc4s3)C2)C1=O (stereo not shown) [compound 097] | 
91 | 600 nM |  | O=C(Nc1nc2c(F)cc(F)cc2s1)C1CCCN(C2CCCC2)C1 (stereo not shown) [compound 099] | 
84 | 250 nM |  | CN1CCC(N2CCCC(C(=O)Nc3nc4c(Br)cccc4s3)C2)C1 (stereo not shown) [compound 100] | 
84 | 500 nM |  | O=C(Nc1nc2c(Br)cccc2s1)C1CCCN(C2CCNC2)C1 (stereo not shown) [compound 101] | 
82 | 280 nM |  | CN1CC(N2CCCC(C(=O)Nc3nc4c(Cl)cc(F)cc4s3)C2)C1 (stereo not shown) [compound 103] | 

Further lines, the compound ahead of its results:

Compound | Emax [1] [%] | EC50 [2] | Max efficacy [2] | Emax [2] [%]
CN(C)CCCN1CCCCC1C(=O)Nc1nc2c(F)cc(F)cc2s1 (stereo not shown) [compound 041] | 101 | 1530 nM |  | 
O=C(Nc1nc2c(F)cc(F)cc2s1)C1CNCCN1C(=O)OCc1ccccc1 (stereo not shown) [compound 043] |  | > 5000 nM |  | 
CN(C)CCN1CCOC(C(=O)Nc2nc3c(F)cc(F)cc3s2)C1 (stereo not shown) [compound 046] |  | > 5000 nM |  | 
O=C(Nc1nc2c(F)cc(F)cc2s1)C1CNCCO1 (stereo not shown) [compound 047] |  | > 5000 nM |  | 
O=C(Nc1nc2c(F)cc(F)cc2s1)C1CCC2CCC1N2 (stereo not shown) [compound 049] |  | 300 nM |  | 98
CN(C)CCN1CCCC1C(=O)Nc1nc2c(F)cc(F)cc2s1 (stereo not shown) [compound 053] | 92 | 800 nM |  | 
CN(C)CCN1CCCCC(C(=O)Nc2nc3c(F)cc(F)cc3s2)C1 (stereo not shown) [compound 055] | 89 | 600 nM |  | 
CN(C)CCN1CC(C(=O)Nc2nc3c(F)cc(F)cc3s2)Cc2ccccc21 (stereo not shown) [compound 057] |  | > 5000 nM |  | 
O=C(Nc1nc2c(F)cc(F)cc2s1)C1CNc2ccccc2C1 (stereo not shown) [compound 058] | 95 | 2600 nM |  | 
CN(C)CCN1Cc2ccccc2C(C(=O)Nc2nc3c(F)cc(F)cc3s2)C1 (stereo not shown) [compound 059] |  | > 5000 nM |  | 
O=C(Nc1nc2c(F)cc(F)cc2s1)C1CNCc2ccccc21 (stereo not shown) [compound 060] |  | > 5000 nM |  | 
CN(C)CCN1CC2(C(=O)Nc3nc4c(Cl)cc(F)cc4s3)CCC1CC2 [compound 061] | 94 | 1020 nM |  | 
O=C(Nc1nc2c(F)cc(F)cc2s1)C12CCC(CC1)NC2 [compound 062] | 92 | 3400 nM |  | 
CN(C)c1ccc(N2CCCC(C(=O)Nc3nc4c(F)cc(F)cc4s3)C2)cc1 (stereo not shown) [compound 066] | 77 | 1900 nM |  | 
O=C(Nc1nc2c(F)cc(F)cc2s1)C1CCCN(CCn2cccn2)C1 (stereo not shown) [compound 067] | 88 | 700 nM |  | 
O=C(Nc1nc2c(F)cc(F)cc2s1)C1CCCN(CCn2ccnc2)C1 (stereo not shown) [compound 068] | 89 | 900 nM |  | 
CN1CCC(N2CCCC(C(=O)Nc3nc4c(F)cc(F)cc4s3)C2)C1 (stereo not shown) [compound 069] |  | 30 to 200 nM | 89-98% | 
CN1CCCC(N2CCCC(C(=O)Nc3nc4c(F)cc(F)cc4s3)C2)C1 (stereo not shown) [compound 070] |  |  | 71% and 85% | 
CN1CCC(N2CCCC(C(=O)Nc3nc4c(F)cc(F)cc4s3)C2)CC1 (stereo not shown) [compound 071] | 93 | 200 nM |  | 
CN1CCCC1CN1CCCC(C(=O)Nc2nc3c(F)cc(F)cc3s2)C1 (stereo not shown) [compound 072] |  | 1200 nM and 1000 nM | 118% and 94% | 
CN1CCCCC1CN1CCCC(C(=O)Nc2nc3c(F)cc(F)cc3s2)C1 (stereo not shown) [compound 073] | 94 | 400 nM |  | 
CN1CCCC(CN2CCCC(C(=O)Nc3nc4c(F)cc(F)cc4s3)C2)C1 (stereo not shown) [compound 074] | 80 | 1100 nM |  | 
CN1CCC(CN2CCCC(C(=O)Nc3nc4c(F)cc(F)cc4s3)C2)CC1 (stereo not shown) [compound 075] | 92 | 1500 nM |  | 
Cn1cc(N2CCCC(C(=O)Nc3nc4c(F)cc(F)cc4s3)C2)cn1 (stereo not shown) [compound 078] | 86 | 4900 nM and 2100 nM | 81% | 
O=C(Nc1nc2c(F)cc(F)cc2s1)C1CCCN(c2ccccn2)C1 (stereo not shown) [compound 079] |  | > 5000 nM |  | 
